Source: patent publication US10167262B2, “Herbicidal substituted 3-arylpyrazoles” (FMC CORPORATION, priority 2014, dated 2019)
Where “and” joins values, the source holds several entries; their conditions need not be identical. Equal entries are not always repeated.

What was measured:
Type in all cases: in vivo
[1] = system: canarygrass (Phalaris minor); assay: Test D postemergence controlled growth environment test, plant response rating 0-100
Text: (§1) Seeds of plant species selected from bluegrass (annual bluegrass, Poa annua), blackgrass (Alopecurus myosuroides), canarygrass (Phalaris minor), chickweed (common chickweed, Stellaria media), galium (catchweed bedstraw, Galium aparine), downy bromegrass (Bromus tectorum), field violet (Viola arvensis), green foxtail (Setaria viridis), deadnettle (henbit deadnettle, Lamium amplexicaule), Italian ryegrass (Lolium multiflorum), kochia (Kochia scoparia), lambsquarters (Chenopodium album), oilseed rape (Brassica napus), pigweed (Amaranthus retroflexus), Russian thistle (Salsola kali), spring barley (Hordeum vulgare), spring wheat (Triticum aestivum), wild buckwheat (Polygonum convolvulus), wild mustard (Sinapis arvensis), wild oat (Avena fatua), windgrass (Apera spica-venti), winter barley (Hordeum vulgare), and winter wheat (Triticum aestivum) were planted in pots containing Redi-Earth® planting medium (Scotts Company, 14111 Scottslawn Road, Marysville, Ohio 43041) comprising spaghnum peat moss, vermiculite, wetting agent and starter nutrients and treated with postemergence applications of test chemicals formulated in a non-phytotoxic solvent mixture which included a surfactant. Plants ranged in height from 2 to 18 cm (1- to 4-leaf stage). Treated plants and controls were maintained in a controlled growth environment for 14 days after which time all species were compared to controls and visually evaluated. Plant response ratings, summarized in Table D, are based on a scale of 0 to 100 where 0 is no effect and 100 is complete control. A dash (-) response means no test result.

[2] = system: chickweed (common chickweed, Stellaria media); assay: as above
Text: as §1

[3] = system: deadnettle (henbit deadnettle, Lamium amplexicaule); assay: as above
Text: as §1

[4] = system: downy bromegrass (Bromus tectorum); assay: as above
Text: as §1

[5] = system: field violet (Viola arvensis); assay: as above
Text: as §1

[6] = system: galium (catchweed bedstraw, Galium aparine); assay: as above
Text: as §1

[7] = system: green foxtail (Setaria viridis); assay: as above
Text: as §1

kochia (Kochia scoparia) = assay: as above
Text: as §1

[8] = system: oilseed rape (Brassica napus); assay: as above
Text: as §1

[9] = system: wild buckwheat (Polygonum convolvulus); assay: as above
Text: as §1

[10] = system: winter barley (Hordeum vulgare); assay: as above
Text: as §1

[11] = system: winter wheat (Triticum aestivum); assay: as above
Text: as §1

[12] = system: Kochia (KCHSC, Kochia scoparia); assay: Test H postemergence mixture test of compound 39 with commercial herbicides, observed and Colby expected effect 0-100; conditions: Cmpd 39 alone, 14 days after treatment
Text: (§2) This test evaluated the effect of mixtures of compound 39 with three commercial herbicides on five plant species. Seeds of plant species selected from corn (ZEAMD, Zea mays), soybean (GLXMA, Glycine max), palmer pigweed (AMAPA, Amaranthus palmeri), waterhemp (common waterhemp, AMATA, Amaranthus rudis), and Kochia (KCHSC, Kochia scoparia) were planted in pots containing Redi-Earth® planting medium (Scotts Company, 14111 Scottslawn Road, Marysville, Ohio 43041) comprising spaghnum peat moss, vermiculite, wetting agent and starter nutrients and treated with postemergence applications of test chemicals formulated in a non-phytotoxic solvent mixture which included a surfactant and applied using a volume of 299 L/ha. Each treatment was replicated four times. Treated plants and controls were maintained in a greenhouse using supplemental lighting to maintain a photoperiod of about 16 h; daytime and nighttime temperatures were about 24-30° C. and 19-21° C., respectively. Nutrients were applied using a balanced fertilizer applied through the watering system. At 14 days after treatment, all species were compared to controls and visually evaluated. Plant response ratings were calculated as the mean of the four replicates, are summarized in Tables H1 through H6, and are based on a scale of 0 to 100 where 0 is no effect and 100 is complete control. A dash (-) response means no test result.
(§3) Colby's Equation was used to determine the herbicidal effects expected from the mixtures. Colby's Equation (Colby, S. R. “Calculating Synergistic and Antagonistic Responses of Herbicide Combinations,” Weeds, 15(1), pp 20-22 (1967)) calculates the expected additive effect of herbicidal mixtures and for two active ingredients is of the form: Pa+b=Pa+Pb−(PaPb/100) • where • Pa+b is the percentage effect of the mixture expected from additive contribution of the individual components: • Pa is the observed percentage effect of the first active ingredient at the same use rate as in the mixture, and • Pb is the observed percentage effect of the second active ingredient at the same use rate as in the mixture. In the following Tables, rates are shown in grams of active ingredient per hectare (g a.i./ha); “Obsd.” is the observed effect. “Exp.” is the expected effect calculated from Colby's Equation.

[13] = system: soybean (GLXMA, Glycine max); assay: as above; conditions: Cmpd 39 alone, 14 days after treatment
Text: as §2, §3

Clc1cc(Cl)cc(-c2n[nH]cc2C(=NN2CCCC2)c2ccccc2)c1 [Compound 30, N-[[3-(3,5-dichlorophenyl)-1H-pyrazol-4-yl]phenylmethylene]-1-pyrrolidinamine]
Plant response rating, Canarygrass ([1]; 16 g ai/ha): 0 | Plant response rating, Canarygrass ([1]; 31 g ai/ha): 0 | Plant response rating, Canarygrass ([1]; 62 g ai/ha): 0 | Plant response rating, Canarygrass ([1]; 125 g ai/ha): 0 | Plant response rating, Canarygrass ([1]; 250 g ai/ha): 10 | Plant response rating, Chickweed ([2]; 16 g ai/ha): 0 | Plant response rating, Chickweed ([2]; 31 g ai/ha): 0 | Plant response rating, Chickweed ([2]; 62 g ai/ha): 10 | Plant response rating, Chickweed ([2]; 125 g ai/ha): 40 | Plant response rating, Chickweed ([2]; 250 g ai/ha): 75 | Plant response rating, Deadnettle ([3]; 16 g ai/ha): 0 | Plant response rating, Deadnettle ([3]; 31 g ai/ha): 0 | Plant response rating, Deadnettle ([3]; 62 g ai/ha): 0 | Plant response rating, Deadnettle ([3]; 125 g ai/ha): 10 | Plant response rating, Deadnettle ([3]; 250 g ai/ha): 10 | Plant response rating, Bromegrass, Downy ([4]; 16 g ai/ha): 0 | Plant response rating, Bromegrass, Downy ([4]; 31 g ai/ha): 0 | Plant response rating, Bromegrass, Downy ([4]; 62 g ai/ha): 0 | Plant response rating, Bromegrass, Downy ([4]; 125 g ai/ha): 0 | Plant response rating, Bromegrass, Downy ([4]; 250 g ai/ha): 0 | Plant response rating, Field Violet ([5]; 16 g ai/ha): 0 | Plant response rating, Field Violet ([5]; 31 g ai/ha): 0 | Plant response rating, Field Violet ([5]; 62 g ai/ha): 10 | Plant response rating, Field Violet ([5]; 125 g ai/ha): 10 | Plant response rating, Field Violet ([5]; 250 g ai/ha): 15 | Plant response rating, Galium ([6]; 16 g ai/ha): 0 | Plant response rating, Galium ([6]; 31 g ai/ha): 0 | Plant response rating, Galium ([6]; 62 g ai/ha): 0 | Plant response rating, Galium ([6]; 125 g ai/ha): 0 | Plant response rating, Galium ([6]; 250 g ai/ha): 0 | Plant response rating, Foxtail, Green ([7]; 16 g ai/ha): 0 | Plant response rating, Foxtail, Green ([7]; 31 g ai/ha): 0 | Plant response rating, Foxtail, Green ([7]; 62 g ai/ha): 0 | Plant response rating, Foxtail, Green ([7]; 125 g ai/ha): 0 | Plant response rating, Foxtail, Green ([7]; 250 g ai/ha): 0 | Plant response rating, Kochia (kochia (Kochia scoparia); 16 g ai/ha): 0 | Plant response rating, Kochia (kochia (Kochia scoparia); 31 g ai/ha): 10 | Plant response rating, Kochia (kochia (Kochia scoparia); 62 g ai/ha): 30 | Plant response rating, Kochia (kochia (Kochia scoparia); 125 g ai/ha): 40 | Plant response rating, Kochia (kochia (Kochia scoparia); 250 g ai/ha): 70 | Plant response rating, Oilseed Rape ([8]; 16 g ai/ha): 30 | Plant response rating, Oilseed Rape ([8]; 31 g ai/ha): 50 | Plant response rating, Oilseed Rape ([8]; 62 g ai/ha): 60 | Plant response rating, Oilseed Rape ([8]; 125 g ai/ha): 85 | Plant response rating, Oilseed Rape ([8]; 250 g ai/ha): 0 | Plant response rating, Buckwheat, Wild ([9]; 16 g ai/ha): 0 | Plant response rating, Buckwheat, Wild ([9]; 31 g ai/ha): 0 | Plant response rating, Buckwheat, Wild ([9]; 62 g ai/ha): 5 | Plant response rating, Buckwheat, Wild ([9]; 125 g ai/ha): 15 | Plant response rating, Buckwheat, Wild ([9]; 250 g ai/ha): 35 | Plant response rating, Barley, Winter ([10]; 16 g ai/ha): 0 | Plant response rating, Barley, Winter ([10]; 31 g ai/ha): 0 | Plant response rating, Barley, Winter ([10]; 62 g ai/ha): 0 | Plant response rating, Barley, Winter ([10]; 125 g ai/ha): 0 | Plant response rating, Barley, Winter ([10]; 250 g ai/ha): 0 | Plant response rating, Wheat, Winter ([11]; 16 g ai/ha): 0 | Plant response rating, Wheat, Winter ([11]; 31 g ai/ha): 0 | Plant response rating, Wheat, Winter ([11]; 62 g ai/ha): 0 | Plant response rating, Wheat, Winter ([11]; 125 g ai/ha): 0 | Plant response rating, Wheat, Winter ([11]; 250 g ai/ha): 90

C#CCn1cc(C(=O)c2ccccc2)c(-c2cc(Cl)cc(Cl)c2)n1 [Compound 39, [3-(3,5-dichlorophenyl)-1-(2-propyn-1-yl)-1H-pyrazol-4-yl]phenylmethanone]
Plant response rating, Canarygrass ([1]; 16 g ai/ha): 0 | Plant response rating, Canarygrass ([1]; 31 g ai/ha): 0 | Plant response rating, Canarygrass ([1]; 62 g ai/ha): 0 | Plant response rating, Canarygrass ([1]; 125 g ai/ha): 0 | Plant response rating, Canarygrass ([1]; 250 g ai/ha): 0 | Plant response rating, Chickweed ([2]; 16 g ai/ha): 0 | Plant response rating, Chickweed ([2]; 31 g ai/ha): 0 | Plant response rating, Chickweed ([2]; 62 g ai/ha): 10 | Plant response rating, Chickweed ([2]; 125 g ai/ha): 30 | Plant response rating, Chickweed ([2]; 250 g ai/ha): 50 | Plant response rating, Deadnettle ([3]; 16 g ai/ha): 0 | Plant response rating, Deadnettle ([3]; 31 g ai/ha): 0 | Plant response rating, Deadnettle ([3]; 62 g ai/ha): 0 | Plant response rating, Deadnettle ([3]; 125 g ai/ha): 0 | Plant response rating, Deadnettle ([3]; 250 g ai/ha): 0 | Plant response rating, Bromegrass, Downy ([4]; 16 g ai/ha): 0 | Plant response rating, Bromegrass, Downy ([4]; 31 g ai/ha): 0 | Plant response rating, Bromegrass, Downy ([4]; 62 g ai/ha): 0 | Plant response rating, Bromegrass, Downy ([4]; 125 g ai/ha): 0 | Plant response rating, Bromegrass, Downy ([4]; 250 g ai/ha): 0 | Plant response rating, Field Violet ([5]; 16 g ai/ha): 0 | Plant response rating, Field Violet ([5]; 31 g ai/ha): 0 | Plant response rating, Field Violet ([5]; 62 g ai/ha): 10 | Plant response rating, Field Violet ([5]; 125 g ai/ha): 10 | Plant response rating, Galium ([6]; 16 g ai/ha): 0 | Plant response rating, Galium ([6]; 31 g ai/ha): 0 | Plant response rating, Galium ([6]; 62 g ai/ha): 0 | Plant response rating, Galium ([6]; 125 g ai/ha): 0 | Plant response rating, Galium ([6]; 250 g ai/ha): 0 | Plant response rating, Foxtail, Green ([7]; 16 g ai/ha): 0 | Plant response rating, Foxtail, Green ([7]; 31 g ai/ha): 0 | Plant response rating, Foxtail, Green ([7]; 62 g ai/ha): 0 | Plant response rating, Foxtail, Green ([7]; 125 g ai/ha): 0 | Plant response rating, Foxtail, Green ([7]; 250 g ai/ha): 10 | Plant response rating, Kochia (kochia (Kochia scoparia); 16 g ai/ha): 0 | Plant response rating, Kochia (kochia (Kochia scoparia); 31 g ai/ha): 0 | Plant response rating, Kochia (kochia (Kochia scoparia); 62 g ai/ha): 20 | Plant response rating, Kochia (kochia (Kochia scoparia); 125 g ai/ha): 10 | Plant response rating, Kochia (kochia (Kochia scoparia); 250 g ai/ha): 20 | Plant response rating, Oilseed Rape ([8]; 16 g ai/ha): 0 | Plant response rating, Oilseed Rape ([8]; 31 g ai/ha): 0 | Plant response rating, Oilseed Rape ([8]; 62 g ai/ha): 10 | Plant response rating, Oilseed Rape ([8]; 125 g ai/ha): 20 | Plant response rating, Oilseed Rape ([8]; 250 g ai/ha): 60 | Plant response rating, Buckwheat, Wild ([9]; 16 g ai/ha): 0 | Plant response rating, Buckwheat, Wild ([9]; 31 g ai/ha): 0 | Plant response rating, Buckwheat, Wild ([9]; 62 g ai/ha): 0 | Plant response rating, Buckwheat, Wild ([9]; 125 g ai/ha): 10 | Plant response rating, Buckwheat, Wild ([9]; 250 g ai/ha): 20 | Plant response rating, Barley, Winter ([10]; 16 g ai/ha): 0 | Plant response rating, Barley, Winter ([10]; 31 g ai/ha): 0 | Plant response rating, Barley, Winter ([10]; 62 g ai/ha): 0 | Plant response rating, Barley, Winter ([10]; 125 g ai/ha): 0 | Plant response rating, Barley, Winter ([10]; 250 g ai/ha): 0 | Plant response rating, Wheat, Winter ([11]; 16 g ai/ha): 0 | Plant response rating, Wheat, Winter ([11]; 31 g ai/ha): 0 | Plant response rating, Wheat, Winter ([11]; 62 g ai/ha): 0 | Plant response rating, Wheat, Winter ([11]; 125 g ai/ha): 0 | Plant response rating, Wheat, Winter ([11]; 250 g ai/ha): 0 | KCHSC Obsd. (observed effect) ([12]; 16 g a.i./ha): 47 | KCHSC Obsd. (observed effect) ([12]; 31 g a.i./ha): 60 and 47 | KCHSC Obsd. (observed effect) ([12]; 62 g a.i./ha): 64 | GLXMA Obsd. (observed effect) ([13]; 16 g a.i./ha): 0 | GLXMA Obsd. (observed effect) ([13]; 31 g a.i./ha): 0 | GLXMA Obsd. (observed effect) ([13]; 62 g a.i./ha): 0
